The subject of this test is [3H]-LCGA-17 binding site in rat brain membranes (putative α2δ). The test is described as follows: [3H]-LCGA-17 radioligand competition binding assay. For orientation: Displacement assays read how much labelled ligand stays bound in the presence of the test substance.
[1] abbreviates: rat brain membranes, result in words.
Setting [2] is: competition of [3H]-LCGA-17 (16 nM) binding, rat brain membranes, Table S1.
Setting [3] is: competition of [3H]-LCGA-17 binding to rat brain (cortical) membranes, text and Figure 3.

pIC50: −log10 of the molar value. Like-named read-outs stand apart in the source and are kept apart here. Some results are limits rather than exact numbers.

As to `NCCCC(=O)O` [GABA, γ-aminobutyric acid], under setting [1], the “cross-reactivity with / competition at the [3H]-LCGA-17 binding site” value (shortened to “cross-reactivity with / competition”) is on record as “no cross-reactivity”.
As to `CCCCCCN(CCCCCC)C(=O)Cc1c(-c2ccc(F)cc2)[nH]c2ccccc12` [FGIN-1-27], the “cross-reactivity with / competition” value was “distinct”. Besides, the pIC50 (in general, the negative decadic logarithm of the IC50, by convention in mol/L) under setting [2] was < 4.00.
For the compound `C[C@@H](CN1CCC(Cc2ccccc2)CC1)[C@@H](O)c1ccc(O)cc1` [Ro-256981], the pIC50 under setting [2] is < 4.00. Under setting [1], the “cross-reactivity with / competition” value is listed as “no cross-reactivity”.
For `CCN1CCCC1CNC(=O)c1cc(S(N)(=O)=O)ccc1OC` (centres unmarked) [Sulpiride] the same measures were < 4.00 and “no cross-reactivity”.
As to `Oc1noc2c1CCNC2` [Gaboxadol (THIP), Gaboxadol], the pIC50 is < 4.00 and the “cross-reactivity with / competition” value is given as “distinct”.
Turning to `Cn1c2ccc(F)cc2c2c(C(=O)N3CCCC3)cn(-c3ccccc3)c(=O)c21` [SL 651498], the pIC50 under setting [2] was < 4.00. Under setting [1], the “cross-reactivity with / competition” value was “distinct”.
On to `COc1ccc(-n2nc3c4ccccc4[nH]cc-3c2=O)cc1` [CGS-9895], for which, under setting [2], the pIC50 is < 4.00. For the same compound, under setting [1], the “cross-reactivity with / competition” value is listed as “no cross-reactivity”.
Regarding `CCCN(CCC)C1CCc2ccc(O)cc2C1` (centres unmarked) [7-OH-DPAT], the “cross-reactivity with / competition” value is “no cross-reactivity”. The pIC50 under setting [2] was < 4.00.
As to `NCC1(CC(=O)O)CCCCC1` [Gabapentin], the negative logarithm of the IC50 (pIC50) runs as follows: under setting [3], ~4.96; (competition of [3H]-LCGA-17 binding to rat brain (cortical) membranes, text and Figure 3, listed as gabapentin) 4.96.
Consider `Fc1ccc(C(OCCN2CCN(CCCc3ccccc3)CC2)c2ccc(F)cc2)cc1` [GBR-12909], for which, under setting [2], the pIC50 is < 4.00.
`NCCCNCCCCNCCCN` [Spermine]: the pIC50 under setting [2] was < 4.00. Further, the “cross-reactivity with / competition” value under setting [1] is “no cross-reactivity”.
As for `NCC(=O)O` [Glycine], the pIC50 was < 4.00 and the “cross-reactivity with / competition” value is “no cross-reactivity”.
Turning to `COc1ccc(-c2ccc(=N)n(CCCC(=O)O)n2)cc1` [Gabazine], the pIC50 under setting [2] is < 4.00. Besides, the “cross-reactivity with / competition” value under setting [1] is “no cross-reactivity”.
As for pregnenolone sulfate [PREGS], the pIC50 under setting [3] was < 4.00. Moreover, the “cross-reactivity with / competition” value under setting [1] is “failed to compete”.
As to `Cn1ncnc1COc1nn2c(-c3c(F)cccc3F)nnc2cc1C1CCC1` [MK0343], under setting [2], the pIC50 was < 4.00. The “cross-reactivity with / competition” value under setting [1] is “distinct”.
In the case of `Cc1ccc(-c2nc3ccc(C)cn3c2CC(=O)N(C)C)cc1` [Zolpidem], the pIC50 was < 4.00.
On to `CC(C)(C)OC(=O)c1ncn2c1[C@@H]1CCCN1C(=O)c1c(Br)cccc1-2` [Bretazenil], for which the negative logarithm of the IC50 (pIC50) was < 4.00 and the “cross-reactivity with / competition” value was “distinct”.
As for `O=C(c1ccc(F)cc1)C1CCN(CCn2c(=O)[nH]c3ccccc3c2=O)CC1` [Ketanserin], under setting [2], the negative logarithm of the IC50 (pIC50) is < 4.00. Besides, under setting [1], the “cross-reactivity with / competition” value is on record as “no cross-reactivity”.
As to `CCC(C)N(C)C(=O)c1cc2ccccc2c(-c2ccccc2Cl)n1` (centres unmarked) [PK-11195], the pIC50 under setting [2] was < 4.00.
Consider `O=C(N/N=C/c1ccccc1O)c1ccccc1O` [Salicylidene salicylhydrazide], for which the “cross-reactivity with / competition” value was “distinct”. Also, the pIC50 under setting [2] is < 4.00.
For the compound `N[C@@H](CCC(=O)O)C(=O)O` [Glutamate], the pIC50 under setting [2] is < 4.00. In addition, the “cross-reactivity with / competition” value under setting [1] is reported as “no cross-reactivity”.
On to `CC(=O)[C@H]1CC[C@H]2[C@@H]3CC=C4C[C@@H](O)CC[C@]4(C)[C@H]3CC[C@]12C` [Pregnenolone], for which the pIC50 under setting [2] was < 4.00.
Take `O=C(O)C1=CCNCC1` [isoguvacine]: the “cross-reactivity with / competition” value under setting [1] was “distinct”.
For the compound `CC(C(O)c1ccc(O)cc1)N1CCC(Cc2ccccc2)CC1` (centres unmarked) [Ifenprodil], under setting [2], the pIC50 is < 4.00.
As to `O=C(CCCN1CCC2(CC1)C(=O)NCN2c1ccccc1)c1ccc(F)cc1` [Spiperone], the “cross-reactivity with / competition” value under setting [1] was “no cross-reactivity”.
On to `NC(N)=NCCCCN=C(N)N` [Arcaine], for which the pIC50 under setting [2] is < 4.00. Also, under setting [1], the “cross-reactivity with / competition” value is listed as “no cross-reactivity”.
As for `NCC(CC(=O)O)c1ccc(Cl)cc1` (centres unmarked) [Baclofen], the pIC50 under setting [2] was < 4.00. In addition, under setting [1], the “cross-reactivity with / competition” value is “no cross-reactivity”.
As to `CC(=O)[C@H]1CC[C@H]2[C@@H]3CC[C@H]4C[C@H](O)CC[C@]4(C)[C@H]3CC[C@]12C` [Allopregnanolone], the pIC50 was < 4.00 and the “cross-reactivity with / competition” value is “distinct”.
On to `CC1(C)CC(=O)c2c(SCCO)sc(-c3nccs3)c2C1` [TB21007], for which the pIC50 under setting [2] was < 4.00. Further, under setting [1], the “cross-reactivity with / competition” value is given as “distinct”.
As for `NCc1cc(=O)[nH]o1` [Muscimol], the “cross-reactivity with / competition” value was “no cross-reactivity”. In addition, under setting [2], the pIC50 is < 4.00.
With `CN1CCC[C@H]1c1cccnc1` [Nicotine], the negative logarithm of the IC50 (pIC50) is < 4.00 and the “cross-reactivity with / competition” value is “no cross-reactivity”.
As for `O=C(CCCN1CCC(O)(c2ccc(Cl)cc2)CC1)c1ccc(F)cc1` [Haloperidol], the “cross-reactivity with / competition” value under setting [1] is listed as “no cross-reactivity”.
Take `C[C@]12CC[C@@H](O)C[C@H]1CC[C@@H]1[C@@H]2CC[C@]2(C)[C@@H](C(=O)CO)CC[C@@H]12` [THDOC]: the “cross-reactivity with / competition” value is listed as “distinct”. For the same compound, under setting [2], the negative-log IC50 (pIC50) was < 4.00.
For `N[C@@]1(C(=O)O)CC[C@H]2[C@H](C(=O)O)[C@H]21` [LY-354740], the pIC50 under setting [2] was < 4.00. For the same compound, the “cross-reactivity with / competition” value under setting [1] is recorded as “no cross-reactivity”.

Source of the values: publication PMC8372404 (Frontiers in Neuroscience, 2021).
